The test system of test [1] is HeLa cells. Particulars: live HeLa cells, SiR-tubulin, 5 μM peptide, 4 h pre-incubation, imaged 10 h every 5 min; 246–297 mitotic events over 3 imaging sessions.
Procedure: HeLa, MDA-MB-468 and MDA-MB-231 cells were plated in a 35 mm imaging dish (Ibidi) in complete growth medium. Prior to imaging, the DMEM or RPMI growth medium was replaced with Optimem medium (Gibco) supplemented with 10% FBS. Added to the medium was SiR-tubulin (Spirochrome) at 30 nM concentration, SPY555-DNA at 1:18000 dilution; both live-cell imaging probes were used at lower than recommended concentrations to avoid possible effects on mitosis. […] The Lattice Lightsheet 7 microscope was fitted with a 10x/0.4NA water immersion illumination lens, a 48x/1.0NA detection lens and a PCO.edge 4.2 sCMOS camera. Each field of view of approximately 500 μm × 297 μm × 33 μm was imaged at 0.2 μm lightsheet interval with the 640 nm channel (15 ms exposure, 15% laser power) and 561 nm channel (15 ms exposure, 10% laser power) over a 10 h period with scans taken every 5 min. To create movies and frame sequences the cell were imaged every 2.5 min for 5 h. Results were processed using Zeiss LLS software and Fiji (v.2.9.0).
The subject of test [2] is HeLa cells. Briefly: Confocal microscopy of fixed HeLa cells (peptide localisation, endogenous TACC3 and CHC on mitotic spindle). The format is cell-based. As to the method: HeLa cells grown on glass coverslips in complete growth medium and treated with 2.5, 5 and 10 μM FAM-peptides for 5 h. Cells were washed with PBS and fixed with PTEMF (20 mM PIPES, pH 6.8, 10 mM EGTA, 1 mM MgCl2, 0.2% Triton X-100 and 4% paraformaldehyde) for 10 min and permeabilized at room temperature in 0.5% Triton-X100 in PBS for 10 min. Cells were blocked in 3% BSA in PBS for 1 h and incubated overnight with primary antibodies diluted in 3% BSA/PBS buffer followed by 1 h incubation with secondary antibodies. Primary antibodies were as follows: mouse anti-CHC (X22; GTX22731; 1:250), rabbit anti-TACC3 (ab134154, Abcam; 1:500). Secondary antibodies were anti-mouse IgG Atto 594 (1:250, 76085, Merck) and anti-rabbit IgG Atto 647N antibody (1:250, 40839, Merck). Coverslips were mounted with ProLong Gold antifade reagent with DAPI (Invitrogen). Peptides were imaged using their 6-FAM fluorescent tag with a 488 nm argon laser. Imaging was performed on a Zeiss LSM880 upright confocal microscope using a 40x/1.4 NA oil objective. Z-stacks comprising of 9–13 × 1 μm sections were acquired. Images were captured using identical settings. The region of interest (~0.6 μm^2) was quantified in three different locations over the spindle, cytoplasm and in the non-cell region of background. Images were analysed using Fiji (v.2.9.0).

Test [3] addresses T1, biotinylated Avi-tagged ankle region of clathrin (aa 358–574) (Homo sapiens, UniProt Q00610).
T1 construct: The biotinylated Avi-tagged ankle region of clathrin (aa 358–574) was immobilised; made in house
T1 sequence (Q00610 358-574 limits assumed): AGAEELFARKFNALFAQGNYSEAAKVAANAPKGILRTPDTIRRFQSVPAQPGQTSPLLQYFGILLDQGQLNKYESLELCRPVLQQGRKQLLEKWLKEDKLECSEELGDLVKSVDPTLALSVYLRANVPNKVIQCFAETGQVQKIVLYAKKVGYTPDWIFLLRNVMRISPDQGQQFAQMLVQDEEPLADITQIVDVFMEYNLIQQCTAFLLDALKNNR
Briefly: SPR binding kinetics. Particulars: Biacore 1K+, average ± SD of duplicates; for kon: CHC aa 358–574 on SA chip, 60 s injection, read-out: ka (SPR). As to the method: The SPR assays were performed using a Biacore 1K+ instrument (Cytiva Life Sciences). The biotinylated Avi-tagged ankle region of clathrin (aa 358–574) was immobilised on the surface of a Streptavidin SA chip (Cytiva Life Sciences) to the density of 150 RU. The increasing concentrations of peptide analytes were diluted in the running buffer (20 mM HEPES pH 7.5, 150 mM NaCl, 5 mM DTT, 0.05% Tween-20) and injected at a flow rate of 30 μL/min). […] Each concentration was injected at 30 μL/min for 60 s. […] The Biacore evaluation software was used to calculate equilibrium KD values as well as ka and kd constants using 1:1 steady-state affinity model implemented into the BIAevaluation 3.0 software.
For orientation: In SPR one partner is held on a chip, and binding of the other changes the refractive index at the surface.

Test [4] has as its target T2, CHC^ankle (clathrin heavy chain aa 358–574) (Homo sapiens, UniProt Q00610).
T2 construct: we used the minimal ankle region of CHC (CHC^ankle, aa 358–574); GST (TEV-cleavable); made in house
T2 sequence (Q00610 358-574): T1 sequence (Q00610 358-574 limits assumed)
Briefly: Fluorescence polarisation direct binding assay, CHC ankle WT. As to the method:
(§1) Binding affinity of CHC and TACC3 peptides was calculated based on fluorescence polarization assays performed as reported previously, using linear and stapled FAM-TACC3 peptides corresponding to aa 549–570 of human TACC3 protein. Linear peptides were purchased from PPR (Fareham, UK); Alta Bioscience (Redditch, UK); Biomatik Corporation (Ontario, Canada). Stock solutions of peptides were 10 mM in DMSO. Binding assays were performed in triplicate in the binding buffer 20 mM HEPES pH 7.5, 150 mM NaCl, 5 mM DTT, 0.05% Tween-20. Data analysis was performed using a one-site specific binding model in Prism (GraphPad software, v10.1.0).
On the technique in general: Polarisation of emitted light reports the rotation of a fluorescent probe.

Test [5] deals with T3, K507A-CHC^ankle (Homo sapiens, UniProt Q00610, K507A).
T3 construct: we used the minimal ankle region of CHC (CHC^ankle, aa 358–574); GST (TEV-cleavable); made in house
T3 sequence (Q00610 358-574 K507A): T1 sequence (Q00610 358-574 limits assumed) with K150A
Briefly: Fluorescence polarisation direct binding assay, K507A-CHC ankle. Particulars: direct binding FP, FAM labelled peptides; CHC with K507A substitution; mean of three experiments ± SD; read-out: KD, stapled and control peptides, CHC K507A.
Text: CHC constructs for binding studies were produced during previous work by cloning the respective CHC coding sequence of Q00610 (CLH1_HUMAN) aa 1–574 and 358–574, respectively) into a modified pGEX vector containing a TEV-cleavable GST tag[26]. Point mutations K506A and K507A were introduced by site-directed mutagenesis. GB1-TACC3 is the small protein GB1[47] fused to a short, disordered peptide sequence from human TACC3 (Q9Y6A5, aa 545–573). This hybrid sequence was cloned into a pETM6T1 vector which contains a TEV protease-cleavable N-terminal His-NusA tag.
as §1

Substitutions are numbered along the chain they refer to. Positions of bridges follow the written chain, without caps; N, C: chain ends. Non-standard residues stand in square brackets, D forms with d. Residues, ends and D or L forms follow the SMILES beside them. *: point of attachment. 5FAM = O=C1OC2(c3ccc(O)cc3Oc3cc(O)ccc32)c2ccc(C(=O)*)cc21; 6FAM = O=C1OC2(c3ccc(O)cc3Oc3cc(O)ccc32)c2cc(C(=O)*)ccc21; S5 = C=CCCC[C@](C)(N)C(=O)O

For the compound `CC(C)C[C@H](NC(=O)[C@H](C)NC(=O)[C@@H]1CCCN1C(=O)[C@H](CC(=O)O)NC(=O)[C@H](C)NC(=O)[C@H](CCC(=O)O)NC(=O)[C@]1(C)CCCC=CCCC[C@](C)(NC(=O)[C@H](CCCCN)NC(=O)[C@H](CCCNC(=N)N)NC(=O)[C@H](CC(C)C)NC(=O)[C@H](C)NC(=O)[C@H](CO)NC(=O)[C@H](CCC(=O)O)NC(=O)[C@H](CCCCN)NC(=O)c2ccc3c(c2)C2(OC3=O)c3ccc(O)cc3Oc3cc(O)ccc32)C(=O)N[C@@H](CCC(=O)O)C(=O)N[C@@H](CC(C)C)C(=O)N[C@@H](CC(C)C)C(=O)N1)C(=O)N[C@@H](CCCNC(=N)N)C(=O)N[C@@H](CC(=O)O)C(=O)N[C@@H](CO)C(N)=O` [Neg. control SP TACC3] (6FAM-KESALRK[S5]ELL[S5]EADPALRDS-NH2; staple 8-12), the “median duration of mitosis from NEBD to anaphase onset” value in test [1] stood at 55 min.
As to `CC(C)C[C@H](NC(=O)[C@H](C)NC(=O)[C@H](CO)NC(=O)[C@H](CCC(=O)O)NC(=O)[C@H](CCCCN)NC(=O)c1ccc2c(c1)C(=O)OC21c2ccc(O)cc2Oc2cc(O)ccc21)C(=O)N[C@@H](CCCNC(=N)N)C(=O)N[C@@H](CCCCN)C(=O)N[C@@]1(C)CCCC=CCCC[C@@](C)(C(=O)N[C@@H](CCC(=O)O)C(=O)N[C@@H](Cc2ccccc2)C(=O)N[C@@H](CC(=O)O)C(=O)N2CCC[C@H]2C(=O)N[C@@H](CC(C)C)C(=O)N[C@@H](Cc2ccccc2)C(=O)N[C@@H](CCCNC(=N)N)C(=O)N[C@@H](CC(=O)O)C(=O)N[C@@H](CO)C(N)=O)NC(=O)[C@H](CC(C)C)NC(=O)[C@H](CC(C)C)NC(=O)[C@H](CCC(=O)O)NC1=O` [Opt SP TACC3] (5FAM-KESALRK[S5]ELL[S5]EFDPLFRDS-NH2; staple 8-12), in test [2] (fixed mitotic HeLa cells, FAM-labelled peptides, confocal microscopy), the “colocalisation with endogenous TACC3 on the mitotic spindle” value was “colocalised with endogenous TACC3 on the mitotic spindle”. Besides, in test [2] (metaphase HeLa cells, peptide 2.5, 5 and 10 μM, 5 h, compared to the negative control SP TACC3 peptide), the “reduction of endogenous TACC3 levels in the mitotic spindle” value is on record as ~ 20%. Besides, in test [3], the kon stood at 1.8e+06 M⁻¹ s⁻¹. Moreover, the “fold increase in binding affinity for CHC compared to WT / parental TACC3 sequence” value in test [4] (compared to the WT (parental) TACC3 peptide) was “over a hundred-fold higher affinity”.
Take `CC(C)C[C@H](NC(=O)[C@H](C)NC(=O)[C@H](CO)NC(=O)[C@H](CCC(=O)O)NC(=O)[C@H](CCCCN)NC(=O)[C@H](Cc1ccccc1)NC(=O)c1ccc2c(c1)C(=O)OC21c2ccc(O)cc2Oc2cc(O)ccc21)C(=O)N[C@@H](CCCNC(=N)N)C(=O)N[C@@H](CCCCN)C(=O)N[C@@]1(C)CCCC=CCCC[C@@](C)(C(=O)N[C@@H](CCCCN)C(=O)N[C@@H](Cc2ccccc2)C(=O)N[C@@H](CC(=O)O)C(=O)N2CCC[C@H]2C(=O)N[C@@H](CC(C)C)C(=O)N[C@@H](CC(C)C)C(=O)N[C@@H](CCCNC(=N)N)C(=O)N[C@@H](CC(=O)O)C(=O)N[C@@H](CO)C(N)=O)NC(=O)[C@H](Cc2ccc(O)cc2)NC(=O)[C@H](CC(C)C)NC(=O)[C@H](CCC(=O)O)NC1=O` [SP4E] (5FAM-FKESALRK[S5]ELY[S5]KFDPLLRDS-NH2; staple 9-13): the Kd (as a rule, the constant that tells how readily two partners part at equilibrium) was found to be 3.7 ± 1 µM in test [5]; 2.8 ± 0.2 µM in test [3] (CHC aa 358–574 on SA chip 150 RU, 20 mM HEPES pH 7.5, 150 mM NaCl, 5 mM DTT, 0.05% Tween-20, 30 μL/min); 34 ± 5 µM in test [4] (direct binding FP, FAM labelled peptides, CHC WT (385–574), mean of three experiments ± SD, read-out: KD, stapled and control peptides, CHC WT). Also, the kon in test [3] came out at 140000 M⁻¹ s⁻¹.

For the origin of these results see article PMC12204359, “Mechanistic Design of Cell-Penetrating Disruptors for a Phospho-Dependent Interaction” (Research Square, 2025).
